Each block holds one compound with its values, some of them ahead of it.
Columns and labels:
GLP-1R [1] = conditions: intact GLP-1; ref [16], [18], [30], [40]; cited from earlier work
type 2 diabetes = conditions: exogenous GLP-1; ref [11]; cited from earlier work
Source text: GLP-1 is generated within intestinal L-cells by the a ...

adenylyl cyclase = assay: cAMP generation by direct activation of adenylyl cyclase with forskolin; type: biochemical; conditions: membranes from HEK-GLP-1R cells, 5 min, 30°C, IBMX
Protocol: Generation of cAMP by cell membranes was determined based on previously published methods, [21]. Membranes were prepared from confluent cell monolayers grown in 80 cm^2 flasks. Cells were washed with 5 ml HBS (154 mM NaCl, 10 mM HEPES, pH 7.4, 37°C), detached using harvesting buffer (154 mM NaCl, 10 mM HEPES, 5.4 mM EDTA, pH 7.4, 37°C) and collected by centrifugation (200 g, 2 min, 4°C). The cell pellet was resuspended in 1 ml of homogenization buffer (10 mM HEPES, 10 mM EDTA, pH 7.4) and sonicated (Sonifier Ultrasonic Cell Disruptor; Branson, CT) at 30% of the maximal amplitude for 3×5 s at ∼30 s intervals before centrifugation (30,000 g, 4°C, 10 min). After removal of the supernatant, pellets were collected in resuspension buffer (10 mM HEPES, 0.1 mM EDTA, pH 7.4), protein concentration adjusted to 1 mg/ml and stored in aliquots at −80°C until assay. Generation of cAMP was determined in 100 µl containing: 10 mM HEPES, 12 mM MgCl2, 60 mM NaCl, 1.2 mM EDTA, 1.2% w/v BSA, 5% DMSO, 480 µM ATP, 2 mM IBMX, 10 µM GTP, 20 µg membrane and ligands as indicated. […]
(§1) The cAMP was extracted from either intact cell or membrane preparations using a method identical to that for extraction of Ins(1,4,5)P3 [22]. Levels of cAMP were then determined by a competitive radioreceptor assay using binding protein purified from bovine adrenal glands and related to cellular protein assessed by Bradford assay.

GLP-1R [2] = conditions: ref [9]; cited from earlier work
Source text: (§2) Such proteolysis is thought to remove biological activity.

[3] = in vivo, cited from earlier work
Source text: as §2

human GLP-1R [4] = molecular target: T1, human GLP-1R (Homo sapiens, UniProt P43220); assay: ERK activation (phospho-ERK Western blot) in HEK-GLP-1R cells; type: cell-based; conditions: GLP-1 9–36 amide (1 µM) + compound 2 (0.1 µM to 1 µM), 5 min; n = 3
T1 construct: expressed in transfected cells; vector pcDNA5/FRT
Protocol: (§3) Concentration-response curves were fitted using GraphPad Prism (GraphPad Software Inc., CA) using a standard four parameter logistic equation. All data are representative of n≥3 or are presented as mean+/±s.e.m., where n = 3 unless otherwise stated. Statistical analysis was by oneway ANOVA and where P<0.05, followed by Bonferroni's or Dunnett's multiple range test as indicated. Alternatively analysis was performed by Student's t-test. Where potency estimates are given these are pEC50 values (−log10 of the molar concentration giving 50% of the maximal response).

human GLP-1R [5] = molecular target: T1, human GLP-1R; assay: cAMP generation by membranes from HEK-GLP-1R cells; type: biochemical; conditions: read-out: Emax as % of the GLP-1 7–36 amide response, cAMP (membranes); 5 min, 30°C, IBMX
Protocol: as §1, §3

human GLP-1R [6] = molecular target: T1, human GLP-1R; assay: cAMP generation in intact HEK-GLP-1R cells; type: cell-based; conditions: IBMX; for EC50: pEC50 of the GLP-1 9–36 amide response (cAMP), 15 min, mean±s.e.m., n = 4
Protocol: (§4) HEK-Flp-In cells with stable recombinant expression of the human GLP-1R (HEK-GLP-1R) were cultured in DMEM with high glucose supplemented with 10% FBS, 100 µg/ml streptomycin and 100 units/ml penicillin sulphate. These cells were originally generated by transfection of HEK-Flp-In cells (Invitrogen: Paisley, U.K.) with pcDNA5/FRT containing the human GLP-1R. […] INS-1E cells were kindly provided by Prof. C.B. Wollheim of the University of Geneva, Switzerland [19]. These cells were used between passages 65–90 and cultured in RPMI media containing 11.1 mM glucose, 5% heat-inactivated FBS, 100 µg/ml streptomycin, 100 units/ml penicillin sulphate, 100 units/ml neomycin, 50 µM β-mercaptoethanol, 10 mM HEPES and 1 mM sodium pyruvate. All cells were cultured at 37°C in a 5% CO2 humidified atmosphere and passaged at confluence.
(§5) Confluent monolayers of HEK-GLP-1R cells cultured in 24-well plates pre-coated with poly-D-lysine (0.1% w/v) where washed twice with 0.5 ml Krebs-HEPES buffer (KHB, composition: 10 mM HEPES; 4.2 mM NaHCO3; 11.7 mM D-glucose; 1.18 mM MgSO4·7H2O; 1.18 mM KH2PO4; 4.69 mM KCl; 118 mM NaCl; 1.3 mM CaCl2·2H2O; pH 7.4) containing 0.1% (w/v) BSA (KHB-BSA) before incubation (10 min, 37°C) in 360 µl KHB-BSA containing 500 µM isobutylmethylxanthine (IBMX). Ligands or vehicle control (40 µl) were added and reactions terminated after the appropriate times by replacement of the aqueous phase with ice-cold 0.5 M trichloroacetic acid. INS-1E cells grown to confluence in 24-well plates were treated similarly with the exception that after washing in KHB, cells were incubated in 200 µl KHB-BSA containing 1.4 mM glucose without IBMX for 2 h followed by challenge with ligands (or vehicle) for 15 min at 37°C in 400 µl KHB-BSA, in the presence of 10 mM glucose and 500 µM IBMX. Reactions were terminated as above.
as §1, §3

[7] = molecular target: T2, GLP-1R (native, rat insulinoma cell line INS-1E) (Rattus norvegicus, UniProt P32301); assay: cAMP generation in INS-1E cells; type: cell-based; conditions: INS-1E, read-out: Emax as % of that evoked by GLP-1 7–36 amide, cAMP (INS-1E), in the presence of compound 2
T2 construct: the rat insulinoma cell line, INS-1E, with native expression of the GLP-1R; endogenous in cells; host or cells: INS-1E rat insulinoma cells (gift of Prof. C.B. Wollheim)
T2 sequence (P32301 22-463): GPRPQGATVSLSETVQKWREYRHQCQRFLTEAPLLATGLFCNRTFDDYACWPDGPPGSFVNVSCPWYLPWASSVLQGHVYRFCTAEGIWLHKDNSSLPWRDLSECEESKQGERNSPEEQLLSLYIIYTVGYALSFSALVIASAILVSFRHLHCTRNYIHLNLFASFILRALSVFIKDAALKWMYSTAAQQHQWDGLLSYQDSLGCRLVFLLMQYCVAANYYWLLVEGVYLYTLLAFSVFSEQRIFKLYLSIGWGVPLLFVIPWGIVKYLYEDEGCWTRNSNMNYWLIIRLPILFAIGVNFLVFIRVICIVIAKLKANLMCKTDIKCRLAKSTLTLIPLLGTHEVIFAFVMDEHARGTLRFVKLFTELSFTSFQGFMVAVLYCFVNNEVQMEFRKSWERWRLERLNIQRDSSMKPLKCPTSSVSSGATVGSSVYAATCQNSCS
Protocol: as §4, §5, §1, §3

[8] = molecular target: GLP-1 7-36 amide 7-36 (Homo sapiens) (UniProt P01275); conditions: cited from earlier work
β2-adrenoceptors = assay: cAMP accumulation via β2-adrenoceptors in HEK-GLP-1R cells; type: cell-based; conditions: isoproterenol 100 µM, IBMX, 5% DMSO
Protocol: Ligands or vehicle control (40 µl) were added and reactions terminated after the appropriate times by replacement of the aqueous phase with ice-cold 0.5 M trichloroacetic acid. […] Reactions were terminated as above.
as §1
All data are mean±/+s.e.m., n = 3–4, *** P<0.001 and ** P<0.01 by Bonferroni's multiple range test. For clarity only differences between ‘numerical’ and ‘co-addition’ conditions are shown.

T1 sequence (P43220 24-463): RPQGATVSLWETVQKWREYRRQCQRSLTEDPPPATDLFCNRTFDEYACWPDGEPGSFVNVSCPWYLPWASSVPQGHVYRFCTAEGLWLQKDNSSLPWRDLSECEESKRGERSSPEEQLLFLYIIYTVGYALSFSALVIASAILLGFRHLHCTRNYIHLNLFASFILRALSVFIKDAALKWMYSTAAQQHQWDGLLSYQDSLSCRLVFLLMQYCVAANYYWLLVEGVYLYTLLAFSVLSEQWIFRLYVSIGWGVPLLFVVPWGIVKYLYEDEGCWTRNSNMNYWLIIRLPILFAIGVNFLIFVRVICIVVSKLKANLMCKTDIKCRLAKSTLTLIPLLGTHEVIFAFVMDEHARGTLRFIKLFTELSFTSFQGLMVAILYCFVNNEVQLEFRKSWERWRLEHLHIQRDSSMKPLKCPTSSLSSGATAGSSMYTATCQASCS
Chain of GLP-1 7-36 amide 7-36 (Homo sapiens) (P01275 7-36): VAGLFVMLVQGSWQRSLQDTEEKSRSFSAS
Chain of GLP-1R (P43220 24-463): as the sequence (P43220 24-463) above

Compound: Glucagon-like peptide-1 [GLP-1]
affinity at the GLP-1R (GLP-1R [1]): nanomolar to sub-nanomolar affinity
effect on insulin secretion and hyperglycaemia in type 2 diabetes (type 2 diabetes): potentiates glucose-dependent insulin secretion and can normalize hyperglycaemia in type 2 diabetes

cAMP generation by forskolin (in words) (adenylyl cyclase): robustly increased cAMP generation
Compound: C=C[C@@]1(C)CC(=O)[C@]2(O)[C@@]3(C)[C@@H](O)CCC(C)(C)[C@@H]3[C@H](O)[C@H](OC(C)=O)[C@@]2(C)O1 [forskolin]

Compound: GLP-1 7–37: generated from proglucagon by prohormone convertase 1/3
relative potency at the GLP-1R (GLP-1R [2]): essentially equipotent
fasting plasma concentration [3]: < 10 pM
plasma concentration following a meal [3]: ~10 pM

ERK activation in excess of the sum of the responses to the ligands alone (human GLP-1R [4]): 45–69%
Emax (human GLP-1R [5]): 23%
EC50 (human GLP-1R [6]; compound 2: 0 µM): 309 nM
EC50 (human GLP-1R [6]; compound 2: 0.03 µM): 85.1 nM
EC50 (human GLP-1R [6]; compound 2: 0.1 µM, ** P<0.01 versus 0 µM compound 2): 32.4 nM
EC50 (human GLP-1R [6]; compound 2: 0.3 µM, *** P<0.001 versus 0 µM compound 2): 8.91 nM
EC50 (human GLP-1R [6]; compound 2: 1.0 µM, *** P<0.001 versus 0 µM compound 2): 5.25 nM
EC50 (human GLP-1R [6]; compound 2: 3.0 µM, *** P<0.001 versus 0 µM compound 2): 3.89 nM
Emax (human GLP-1R [6]; read-out: Emax as % of the GLP-1 7–36 amide response, cAMP, no pretreatment, 15 min challenge): 18%
Emax [7]: ~50%
Compound: CC[C@H](C)[C@H](NC(=O)[C@H](Cc1ccccc1)NC(=O)[C@H](CCC(=O)O)NC(=O)[C@H](CCCCN)NC(=O)[C@H](C)NC(=O)[C@H](C)NC(=O)[C@H](CCC(N)=O)NC(=O)CNC(=O)[C@H](CCC(=O)O)NC(=O)[C@H](CC(C)C)NC(=O)[C@H](Cc1ccc(O)cc1)NC(=O)[C@H](CO)NC(=O)[C@H](CO)NC(=O)[C@@H](NC(=O)[C@H](CC(=O)O)NC(=O)[C@H](CO)NC(=O)[C@@H](NC(=O)[C@H](Cc1ccccc1)NC(=O)[C@@H](NC(=O)CNC(=O)[C@@H](N)CCC(=O)O)[C@@H](C)O)[C@@H](C)O)C(C)C)C(=O)N[C@@H](C)C(=O)N[C@@H](Cc1c[nH]c2ccccc12)C(=O)N[C@@H](CC(C)C)C(=O)N[C@H](C(=O)N[C@@H](CCCCN)C(=O)NCC(=O)N[C@@H](CCCNC(=N)N)C(N)=O)C(C)C [GLP-1 9–36 amide, Glucagon-like peptide-1 9–36 amide]
peak plasma level, oral glucose tolerance test ([3]; po): ~60 pM

Compound: GLP-1R (from UniProt P43220)
Kd [8]: 1 nM

Compound: CC(C)NCC(O)c1ccc(O)c(O)c1 (stereo not shown) [isoproterenol]
cAMP accumulation (in words) (β2-adrenoceptors): stimulation of cAMP accumulation

From article PMC3477139 (PLoS ONE, 2012)
